Our source for the melting point values is patent US7799819B2, “7-Amido-isoindolyl compounds and their pharmaceutical uses” (Celgene Corporation, priority 2003, dated 2010).

For orientation: melting point means the temperature, or range, at which the solid turns liquid.

SMILES strings stand for the structures.

Regarding `CCOc1cc([C@@H](CS(C)(=O)=O)N2Cc3c(Cl)ccc(NC(=O)CN(C)C)c3C2=O)ccc1OC.Cl`, the melting point lay within 198 to 200 °C.

Compound `CCOc1cc([C@@H](CC(=O)NOC(=O)CC(C)(C)C)N2Cc3cccc(NC(=O)C4CC4)c3C2=O)ccc1OC` [Example 27, (1R)-Cyclopropanecarboxylic acid {2-[2-(3,3-dimethyl-butyryloxycarbamoyl)-1-(3-ethoxy-4-methoxy-phenyl)-ethyl]-3-oxo-2,3-dihydro-1H-isoindol-4-yl}-amide] gave a melting point of 118 to 120 °C. As to `CCOc1cc([C@@H](CS(C)(=O)=O)N2Cc3c(Cl)ccc(NC(=O)N(C)C)c3C2=O)ccc1OC` [Example 29, (1S)-3-{7-Chloro-2-[1-(3-ethoxy-4-methoxy-phenyl)-2-methanesulfonyl-ethyl]-3-oxo-2,3-dihydro-1H-isoindol-4-yl}-1,1-dimethyl-urea], the melting point lay in the range of 205 to 207 °C. Consider `CCOc1cc([C@@H](CC(C)(C)O)N2Cc3cccc(NC(=O)C4CC4)c3C2=O)ccc1OC` [Example 23, (1R)-Cyclopropanecarboxylic acid {2-[1-(3-ethoxy-4-methoxy-phenyl)-3-hydroxy-3-methyl-butyl]-3-oxo-2,3-dihydro-1H-isoindol-4-yl}-amide], for which the melting point was 90 to 92 °C. Under `CCOc1cc(C(CC)N2Cc3cccc(NC(=O)C4CC4)c3C2=O)ccc1OC` (stereo not drawn) [Example 20, Cyclopropanecarboxylic acid {2-[1-(3-ethoxy-4-methoxy-phenyl)-propyl]-3-oxo-2,3-dihydro-1H-isoindol-4-yl}-amide] stands 107 to 109 °C. `CCOc1cc(C(CCN(OC(=O)OC(C)(C)C)C(=O)OC(C)(C)C)N2Cc3cccc(NC(=O)C4CC4)c3C2=O)ccc1OC` [Example 2, (3R)-(tert-Butoxy)-N-{3-[7-(cyclopropylcarbonylamino)-1-oxoisoindolin-2-yl]-3-(3-ethoxy-4-methoxyphenyl)propyl}carbonylamino(tert-butoxy)formate] registered a melting point of 153 to 155 °C. `CCOc1cc([C@@H](CS(C)(=O)=O)N2Cc3c(Br)ccc(NC(=O)C4CC4)c3C2=O)ccc1OC` [Example 19, (1S)-Cyclopropanecarboxylic acid {7-bromo-2-[1-(3-ethoxy-4-methoxy-phenyl)-2-methanesulfonyl-ethyl]-3-oxo-2,3-dihydro-1H-isoindol-4-yl}-amide] had a melting point of 219 to 221 °C. The compound `CCOc1cc([C@@H](CS(C)(=O)=O)N2Cc3c(Cl)ccc(NC(=O)CN4CCN(C)CC4)c3C2=O)ccc1OC` [Example 30, (1S)—N-{7-Chloro-2-[1-(3-ethoxy-4-methoxy-phenyl)-2-methanesulfonyl-ethyl]-3-oxo-2,3-dihydro-1H-isoindol-4-yl}-2-(4-methyl-piperazin-1-yl)-acetamide] had a melting point of 205 to 207 °C.

`CCOc1cc([C@@H](CC(=O)OC)N2Cc3c(Cl)ccc(NC(=O)C4CC4)c3C2=O)ccc1OC` [Example 13, (3R)-3-[4-Chloro-7-(cyclopropanecarbonyl-amino)-1-oxo-1,3-dihydro-isoindol-2-yl]-3-(3-ethoxy-4-methoxy-phenyl)-propionic acid methyl ester] came in with a melting point of 158 to 160 °C. The value for `CCOc1cc([C@@H](CCO)N2Cc3cccc(NC(=O)C4CC4)c3C2=O)ccc1OC` [Example 1, (1R)-Cyclopropanecarboxylic acid {2-[1-(3-ethoxy-4-methoxy-phenyl)-3-hydroxy-propyl]-3-oxo-2,3-dihydro-1H-isoindol-4-yl}-amide] was 103 to 105 °C. As to `CCOc1cc([C@@H](CCNO)N2Cc3cccc(NC(=O)C4CC4)c3C2=O)ccc1OC` [Example 3, (1R)-Cyclopropanecarboxylic acid {2-[1-(3-ethoxy-4-methoxy-phenyl)-3-hydroxyamino-propyl]-3-oxo-2,3-dihydro-1H-isoindol-4-yl}-amide], the melting point was 136 to 138 °C. The compound `CCOc1cc([C@@H](CS(C)(=O)=O)N2Cc3c(Cl)ccc(NC(=O)CN4CCOCC4)c3C2=O)ccc1OC.Cl` registered a melting point of 198 to 200 °C.
